Format in all cases: functional
Test [1] relates to Schizaphis graminum. Kind of test: Toxicity against Schizaphis graminum fed on artificial diet containing compound assessed as relative survival at 50 uM after 24 hr by non-choice assay (reference value: 100 +/-0%).
Test [2] has as its system Schizaphis graminum. Kind of test: Feeding deterrence activity against Schizaphis graminum fed on artificial diet containing compound assessed as relative survival at 500 uM after 24 hr by non-choice assay (reference value: 100 +/-0%).
The subject of test [3] is Schizaphis graminum. The test can be described thus: Feeding deterrence activity against Schizaphis graminum fed on artificial diet containing compound assessed as relative survival at 250 uM after 24 hr by non-choice assay (reference value: 100 +/-0%).
Test [4] relates to Schizaphis graminum. The test can be described thus: Feeding deterrence activity against Schizaphis graminum fed on artificial diet containing compound assessed as relative survival at 100 uM after 24 hr by non-choice assay (reference value: 100 +/-0%).
Test [5] relates to Schizaphis graminum. The test can be described thus: Feeding deterrence activity against Schizaphis graminum fed on artificial diet containing compound assessed as relative survival at 50 uM after 24 hr by non-choice assay (reference value: 100 +/-0%).
In test [6] the test system is Schizaphis graminum. Kind of test: Feeding deterrence activity against Schizaphis graminum fed on artificial diet containing compound assessed as relative survival at 500 uM after 12 hr by non-choice assay (reference value: 100 +/-0%).
In test [7] the test system is Schizaphis graminum. Kind of test: Feeding deterrence activity against Schizaphis graminum fed on artificial diet containing compound assessed as relative survival at 250 uM after 12 hr by non-choice assay (reference value: 100 +/-0%).
Test [8] concerns Schizaphis graminum. The test can be described thus: Feeding deterrence activity against Schizaphis graminum fed on artificial diet containing compound assessed as relative survival at 100 uM after 12 hr by non-choice assay (reference value: 100 +/-0%).
Test [9] relates to Schizaphis graminum. The test can be described thus: Feeding deterrence activity against Schizaphis graminum fed on artificial diet containing compound assessed as relative survival at 50 uM after 12 hr by non-choice assay (reference value: 100 +/-0%).
Test [10] relates to Schizaphis graminum. Kind of test: Toxicity against Schizaphis graminum fed on artificial diet containing compound assessed as relative survival at 500 uM after 24 hr by non-choice assay (reference value: 100 +/-0%).
Test [11] deals with Schizaphis graminum. Kind of test: Toxicity against Schizaphis graminum fed on artificial diet containing compound assessed as relative survival at 250 uM after 24 hr by non-choice assay (reference value: 100 +/-0%).
Test [12] has as its system Schizaphis graminum. The test can be described thus: Toxicity against Schizaphis graminum fed on artificial diet containing compound assessed as relative survival at 100 uM after 24 hr by non-choice assay (reference value: 100 +/-0%).

`C[C@H]1CC[C@@]2(OC1)O[C@H]1[C@H](O)[C@H]3[C@@H]4CC=C5C[C@@H](O[C@@H]6O[C@H](CO)[C@H](O[C@@H]7O[C@H](CO)[C@@H](O)[C@H](O)[C@H]7O[C@@H]7O[C@H](CO)[C@@H](O)[C@H](O)[C@H]7O)[C@H](O)[C@H]6O[C@@H]6O[C@@H](C)[C@H](O)[C@@H](O)[C@H]6O)CC[C@]5(C)[C@H]4CC[C@]3(C)[C@H]1[C@@H]2C` [Luciamin]: the survival at 50 µM in test [1] came to 47%; in test [5], 64%; in test [9], 93%. The survival at 500 µM in test [2] came to 76%; in test [6], 70%; in test [10], 40%. In addition, the survival at 250 µM was determined as 72% in [3], 85% in test [7] and 48% in [11]. For the same compound, the survival at 100 µM in test [4] was determined as 70%; in [8], 80%; in test [12], 49%.
